From patent publication US8835375B2 (Applied Nanosystems B.V., priority 2006, dated 2014)
Read-outs that look alike come from different tables or passages of the source. Values belong to the molecule of their own block, whether it stands above or below them. Non-standard residues stand in square brackets, D forms with d. No end group written: not given here. Abu = CC[C@H](N)C(=O)O

Columns and labels:
[1] = proteolytic resistance in pig liver homogenate; type: in vitro ADME; details: for half-life at 0.2 μmol/mg liver homogenate / metabolised at 3 h, 0.2 μmol angiotensin/mg liver homogenate / half-life: pig; for half-life at 0.2 μmol/mg liver homogenate / metabolised at 3 h, 0.2 μmol angiotensin/mg liver homogenate: pig liver homogenate; for metabolised at 3 h, 0.2 μmol angiotensin/mg liver homogenate: read-out: Degradation after 3 h (%)
Experimental: (§1) Angiotensin (wildtype or cyclised analogs, chemically produced [Cyc 4-7] Ang(1-7) or biologically produced [Cyc 4-7] Ang(1-8)) was added to homogenates of pig liver (0.2 μmol angiotensin/mg liver homogenate), pig kidney (0.2 μmol angiotensin/mg kidney homogenate), pig pancreas (0.8 μmol angiotensin/mg pancreas homogenate) or plasma (1 μmol angiotensin/ml) and incubated at 37° C., pH 7.4 or pH 5, for different time periods up to 30 hours. The enzymatic reaction was stopped by 100° C. for 5 min. The remaining amount of intact angiotensin was determined by RP-HPLC with C18-column, mobile phase gradient and 214 nm detection.

[2] = proteolytic resistance in pig kidney homogenate; type: in vitro ADME; details: for half-life at 0.2 μmol/mg kidney homogenate / metabolised at 3 h, 0.2 μmol angiotensin/mg kidney homogenate / half-life: pig; for half-life at 0.2 μmol/mg kidney homogenate / metabolised at 3 h, 0.2 μmol angiotensin/mg kidney homogenate: pig kidney homogenate; for metabolised at 3 h, 0.2 μmol angiotensin/mg kidney homogenate: read-out: Degradation after 3 h (%)
Experimental: as §1

[3] = proteolytic resistance in pig pancreas homogenate; type: in vitro ADME; details: for metabolised at 3 h, 0.8 μmol angiotensin/mg pancreas homogenate: read-out: Degradation after 3 h (%)
Experimental: as §1

[4] = proteolytic resistance in plasma; type: in vitro ADME; details: pH 7.4, 37° C.; for metabolised at 3 h, 1 μmol/ml: read-out: Degradation after 3 h (%)
Experimental: as §1

[5] = molecular target: T1, Angiotensin Converting Enzyme (ACE) from Porcine kidney (Sus scrofa, UniProt F1RRW5); experiment: resistance against angiotensin converting enzyme (ACE); type: in vitro ADME; details: 50 μM peptide; for breakdown by ACE: 37° C., pH 8.3
T1 construct: Angiotensin Converting Enzyme (ACE) from Porcine kidney, SIGMA; purchased SIGMA; host or cells: porcine kidney (tissue-derived)
T1 sequence (F1RRW5 34-1309): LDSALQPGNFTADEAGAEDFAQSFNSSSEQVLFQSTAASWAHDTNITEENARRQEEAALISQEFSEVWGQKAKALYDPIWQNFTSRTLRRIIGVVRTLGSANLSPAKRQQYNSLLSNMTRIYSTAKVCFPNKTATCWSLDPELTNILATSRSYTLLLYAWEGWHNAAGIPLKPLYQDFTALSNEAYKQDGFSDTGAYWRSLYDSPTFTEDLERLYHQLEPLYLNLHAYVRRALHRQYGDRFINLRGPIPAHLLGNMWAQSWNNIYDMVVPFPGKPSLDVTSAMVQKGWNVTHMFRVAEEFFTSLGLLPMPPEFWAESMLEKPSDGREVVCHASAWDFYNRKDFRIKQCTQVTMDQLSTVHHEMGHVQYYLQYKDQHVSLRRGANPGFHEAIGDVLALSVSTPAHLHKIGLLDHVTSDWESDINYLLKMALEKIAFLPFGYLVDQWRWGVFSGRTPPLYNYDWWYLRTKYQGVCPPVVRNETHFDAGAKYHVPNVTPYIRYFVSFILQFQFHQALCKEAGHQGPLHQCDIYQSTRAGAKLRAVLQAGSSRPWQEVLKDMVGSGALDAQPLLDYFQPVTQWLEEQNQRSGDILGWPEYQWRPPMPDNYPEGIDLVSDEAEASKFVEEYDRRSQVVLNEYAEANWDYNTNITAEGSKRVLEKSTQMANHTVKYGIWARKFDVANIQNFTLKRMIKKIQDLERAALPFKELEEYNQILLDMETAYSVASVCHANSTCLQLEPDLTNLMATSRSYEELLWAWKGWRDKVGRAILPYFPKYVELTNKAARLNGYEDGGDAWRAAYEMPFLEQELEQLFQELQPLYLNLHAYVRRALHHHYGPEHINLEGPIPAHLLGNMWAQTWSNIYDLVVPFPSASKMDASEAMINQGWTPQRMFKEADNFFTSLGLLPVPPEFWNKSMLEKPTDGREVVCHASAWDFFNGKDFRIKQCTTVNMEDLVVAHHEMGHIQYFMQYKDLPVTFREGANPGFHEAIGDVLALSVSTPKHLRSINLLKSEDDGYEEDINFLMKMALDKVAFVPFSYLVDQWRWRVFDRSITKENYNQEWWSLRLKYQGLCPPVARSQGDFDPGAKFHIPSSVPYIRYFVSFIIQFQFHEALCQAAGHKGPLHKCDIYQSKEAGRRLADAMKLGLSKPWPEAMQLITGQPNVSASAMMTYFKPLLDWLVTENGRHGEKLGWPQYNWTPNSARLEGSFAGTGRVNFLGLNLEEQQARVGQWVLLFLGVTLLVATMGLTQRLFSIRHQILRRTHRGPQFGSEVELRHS
Experimental: Angiotensin Converting Enzyme (ACE) from Porcine kidney, SIGMA, was used at 4 nM final concentration, FIGS. 2A and 2B, or at 8 nM final concentration, FIGS. 2C and 2D. Natural Ang(1-7) was purchased from Bachem. All experiments were performed in duplicate in a waterbath at 37° C., incubations were performed in a buffer containing 100 mM Tris-HCl, 300 mm NaCl, 10 μM Zn, pH 8.3. Thioether-ring-containing angiotensin was obtained by bacterial production using L. lactis containing the nisin modification and transporter enzymes, NisBTC. Natural angiotensin(1-7), lanthionine-containing angiotensin(1-7) and methyllanthionine-containing angiotensin(1-7) were each used at a concentration of 50 μM. Both the lanthionine and the methyllanthionine variant had the thioether bridge between positions 4 and 7. The reaction was stopped by 100° C. for 5 minutes and put on ice. Samples were centrifuged for 10 min at 14000 rpm at 4° C. and quantified by RP-HPLC. Identification of the HPLC peaks was performed using Maldi TOF mass spectrometry. All points are the average of two measurements.

[6] = in vivo stability during continuous intravenous infusion in the rat (Maldi TOF of plasma); set-up: species or system Sprague Dawley rat; details: i.v. infusion 1 mL/hour of 100 μM of each peptide together, sample taken at 120 min
Experimental: Rats (Sprague Dawley) were infused during 2 hours at a speed of 1 mL/hour with a solution containing simultaneously two compounds: both 100 μM natural Ang(1-7) as well as 100 μM methyllanthionine-containing angiotensin(1-7) with the thioether bridge between positions 4 and 7. Methyllanthionine-containing angiotensin(1-7) was prepared using L. lactis expressing lantibiotic enzymes as described in example 1. Maldi TOF analyses were performed on plasma samples as described in example 3. Undiluted sample (upper spectrum, mass peak of 826.06 Da at the arrow) and 100-fold diluted sample (lower spectrum, mass peak of 826.47 Da at the arrow) both gave a peak of the right mass, i.e. corresponding to intact methyllanthionine-containing angiotensin(1-7) (Theoretical mass M+H^+ equals 825.9758). […] In a control experiment mixing natural angiotensin(1-7) ex vivo with rat plasma, allowed subsequent detection of natural angiotensin(1-7) (not shown). Experimental details are mentioned in the text of example 3.
A male Sprague Dawley rat was kept under O2/Isoflurane (1.5-2%) narcosis throughout the study. A jugular vein catheter was applied and connected to a syringe containing 0.9% physiological salt solution. The syringe was mounted onto an infusion pump and the flow rate set to 1 mL/hour. […]

[7] = system: ACE; experiment: In vivo; details: cited from earlier work
[8] = system: Angiotensin Converting Enzyme (ACE); experiment: Angiotensin Converting Enzyme (ACE) from Porcine kidney, SIGMA, 4 nM in 100 mM Tris-HCl, 300 mm NaCl, 10 μM Zn, pH 8.3; details: 37° C., up to 26 hour
[9] = system: Angiotensin Converting Enzyme (ACE); experiment: Angiotensin Converting Enzyme (ACE) from Porcine kidney, SIGMA, 8 nM in 100 mM Tris-HCl, 300 mm NaCl, 10 μM Zn, pH 8.3; details: 37° C.
[10] = pig, pig pancreas homogenate, pH 5.0, 37° C.
[11] = pig, pig pancreas homogenate, pH 7.4, 37° C.
[12] = pH 7.4, versus linear angiotensin(1-7)
[13] = tissue homogenate, pH 7.4, 37° C.

Molecule: CC[C@H](C)[C@H](NC(=O)[C@H](Cc1ccc(O)cc1)NC(=O)[C@@H](NC(=O)[C@H](CCCNC(=N)N)NC(=O)[C@@H](N)CC(=O)O)C(C)C)C(=O)N[C@@H](Cc1c[nH]cn1)C(=O)N1CCC[C@H]1C(=O)O [Ang(1-7), DRVYIHP, reference compound]
half-life at 0.2 μmol/mg liver homogenate ([1]; pH 5.0, 37° C.): 2.55 h | metabolised at 3 h, 0.2 μmol angiotensin/mg liver homogenate ([1]; pH 5.0, 37° C.): 56% | half-life at 0.2 μmol/mg liver homogenate ([1]; pH 7.4, 37° C.): 0.533 h | metabolised at 3 h, 0.2 μmol angiotensin/mg liver homogenate ([1]; pH 7.4, 37° C.): 100% | half-life at 0.2 μmol/mg kidney homogenate ([2]; pH 5.0, 37° C.): 0.467 h | metabolised at 3 h, 0.2 μmol angiotensin/mg kidney homogenate ([2]; pH 5.0, 37° C.): 98% | half-life at 0.2 μmol/mg kidney homogenate ([2]; pH 7.4, 37° C.): 0.0833 h | metabolised at 3 h, 0.2 μmol angiotensin/mg kidney homogenate ([2]; pH 7.4, 37° C.): 100% | Half-life (min) ([3]; pH 5.0, 37° C.): ∞ | metabolised at 3 h, 0.8 μmol angiotensin/mg pancreas homogenate [3, 10]: 16% | half-life at 0.8 μmol/mg pancreas homogenate [3, 11]: 1.35 h | metabolised at 3 h, 0.8 μmol angiotensin/mg pancreas homogenate [3, 11]: 81% | half-life at 1 μmol/ml [4]: 2.77 h | metabolised at 3 h, 1 μmol/ml [4]: 55% | formation of Ang(1-5) by incubation with ACE ([5]; 4 nM ACE): resulted in angiotensin(1-5) formation | breakdown by ACE ([5]; 4 nM ACE, 26 hour incubation): completely broken down | formation of Ang(1-5) by incubation with ACE ([5]; 8 nM ACE): emergence of angiotensin(1-5) | breakdown by ACE ([5]; 8 nM ACE): rapidly broken down | detection of intact peptide in plasma by Maldi TOF [6]: not detected at all

Molecule: DRV[Abu]IHA [methyllanthionine-containing Ang(1-7)]
formation of Ang(1-5) by incubation with ACE ([5]; 4 nM ACE): did not lead to the appearance of Ang(1-5) | breakdown by ACE ([5]; 4 nM ACE, 26 hour incubation): no degradation | detection of intact peptide in plasma by Maldi TOF [6]: detected

Molecule: CC[C@H](C)[C@H](NC(=O)[C@H](Cc1ccc(O)cc1)NC(=O)[C@@H](NC(=O)[C@H](CCCNC(=N)N)NC(=O)[C@@H](N)CC(=O)O)C(C)C)C(=O)N[C@@H](Cc1cnc[nH]1)C(=O)N1CCC[C@H]1C(=O)N[C@@H](Cc1ccccc1)C(=O)O [Ang(1-8), Asp-Arg-Val-Tyr-Ile-His-Pro-Phe, reference compound]
metabolised at 3 h, 0.2 μmol angiotensin/mg liver homogenate ([1]; pH 7.4, 37° C.): 98% | metabolised at 3 h, 0.2 μmol angiotensin/mg kidney homogenate ([2]; pH 7.4, 37° C.): 100% | metabolised at 3 h, 0.8 μmol angiotensin/mg pancreas homogenate [3, 11]: 70%

Molecule: DRVAIHA
not cleaved [9]: no breakdown observed

More lines, main results first:

increase of half-life by ring introduction ([1]; pH 5, versus linear angiotensin(1-7)): 5 fold | increase of half-life by 4,7-cyclisation [1, 12]: 2 fold | metabolised at 3 h, 0.2 μmol angiotensin/mg liver homogenate ([1]; pH 5.0, 37° C.): 8% | metabolised at 3 h, 0.2 μmol angiotensin/mg liver homogenate ([1]; pH 7.4, 37° C.): 82% | half-life ([1]; tissue homogenate, pH 5.0, 37° C.): 11.8 h | half-life [1, 13]: 1.13 h | increase of half-life by 4,7-cyclisation [2, 12]: 6 fold | metabolised at 3 h, 0.2 μmol angiotensin/mg kidney homogenate ([2]; pH 5.0, 37° C.): 4% | metabolised at 3 h, 0.2 μmol angiotensin/mg kidney homogenate ([2]; pH 7.4, 37° C.): 91% | half-life ([2]; tissue homogenate, pH 5.0, 37° C., cell printed in hours): > 24 h | half-life [2, 13]: 0.533 h | Half-life (min) ([3]; pH 5.0, 37° C.): ∞ | increase of half-life by 4,7-cyclisation [3, 12]: more than 18 fold | metabolised at 3 h, 0.8 μmol angiotensin/mg pancreas homogenate [3, 10]: 6% | metabolised at 3 h, 0.8 μmol angiotensin/mg pancreas homogenate [3, 11]: 4% | half-life ([3]; pig, tissue homogenate, pH 7.4, 37° C., cell printed in hours): > 24 h | half-life [4]: 15.4 h | metabolised at 3 h, 1 μmol/ml [4]: 15%
Molecule: CC[C@H](C)[C@@H]1NC(=O)[C@H](NC(=O)[C@@H](NC(=O)[C@H](CCCNC(=N)N)NC(=O)[C@@H](N)CC(=O)O)C(C)C)CSC[C@@H](C(=O)O)NC(=O)[C@H](Cc2c[nH]cn2)NC1=O [[Cyc^4-7]Ang(1-7), Asp-Arg-Val-Ala-Ile-His-Ala]

cleaved bond [8]: I5-H6, major | cleaved bond [9]: I5-H6, major
Molecule: DRVYIHP
cleaved bond [7]: I5-H6

half-life ([1]; pH 7.4, 37° C.): 1.12 h | metabolised at 3 h, 0.2 μmol angiotensin/mg liver homogenate ([1]; pH 7.4, 37° C.): 100% | half-life ([2]; pH 7.4, 37° C.): 0.117 h | metabolised at 3 h, 0.2 μmol angiotensin/mg kidney homogenate ([2]; pH 7.4, 37° C.): 100% | half-life ([3]; pig, pH 7.4, 37° C.): 8.05 h | metabolised at 3 h, 0.8 μmol angiotensin/mg pancreas homogenate [3, 11]: 21%
Molecule: CC[C@H](C)[C@@H]1NC(=O)C(NC(=O)[C@@H](NC(=O)[C@H](CCCNC(=N)N)NC(=O)[C@@H](N)CC(=O)O)C(C)C)C(C)SC[C@@H](C(=O)N[C@@H](Cc2ccccc2)C(=O)O)NC(=O)[C@H](Cc2c[nH]cn2)NC1=O (stereo partly drawn) [[Cyc^4-7]Ang(1-8), Asp-Arg-Val-Abu-Ile-His-Ala-Phe]
